ChEMBL document CHEMBL1201862, “PubChem BioAssay data set” (2004)
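Compound exposure: 48 hours, 5 concentrations, 96-well plates. Abbreviation: GI50, concentration required for 50% inhibition of growth.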 Activity calls are given as the source filed them. No stated cut-off is given here; in the data, active = GI50 up to about 1.1 µM and inactive = higher.

Legend:
Test in all cases: NCI tumour cell line growth inhibition, 48 h
A498 = system: A498
A549 = system: A549
ACHN = system: ACHN
COLO 205 = system: COLO 205
HCT-116 = system: HCT-116
HOP-92 = system: HOP-92
K562 = system: K562
MCF7 = system: MCF7
MDA-MB-231 = system: MDA-MB-231
Malme-3M = system: Malme-3M
NCI-H23 = system: NCI-H23
OVCAR-4 = system: OVCAR-4
RPMI-8226 = system: RPMI-8226
SF-295 = system: SF-295
SF-539 = system: SF-539
SK-MEL-28 = system: SK-MEL-28
SK-OV-3 = system: SK-OV-3
SN12C = system: SN12C
SNB-19 = system: SNB-19

Row | Structure (SMILES) | GI50 (A498) | GI50 (A549) | GI50 (ACHN) | GI50 (COLO 205) | GI50 (HCT-116) | GI50 (HOP-92) | GI50 (K562) | GI50 (MCF7) | GI50 (MDA-MB-231) | GI50 (Malme-3M) | GI50 (NCI-H23) | GI50 (OVCAR-4) | GI50 (RPMI-8226) | GI50 (SF-295) | GI50 (SF-539) | GI50 (SK-MEL-28) | GI50 (SK-OV-3) | GI50 (SN12C) | GI50 (SNB-19)
1 | CNC(=O)C1CCC(=O)N1CN(C(C)=O)c1ccccc1 (centres undefined) | > 100 µM (inactive) | > 100 µM (inactive) | > 100 µM (inactive) | > 100 µM (inactive) | > 100 µM (inactive) | > 100 µM (inactive) | > 100 µM (inactive) | > 100 µM (inactive) | > 100 µM (inactive) | > 100 µM (inactive) | > 100 µM (inactive) | > 100 µM (inactive) | > 100 µM (inactive) | > 100 µM (inactive) | > 100 µM (inactive) | > 100 µM (inactive) | > 100 µM (inactive) | > 100 µM (inactive) | > 100 µM (inactive)
2 | Cc1ccccc1C(=O)NC(O)(C(F)(F)F)C(F)(F)F | > 100 µM (inactive) | 82.4 µM (inactive) | > 100 µM (inactive) | > 100 µM (inactive) | > 100 µM (inactive) | > 100 µM (inactive) | 57.9 µM (inactive) | > 100 µM (inactive) | > 100 µM (inactive) | 28.2 µM (inactive) | 78.2 µM (inactive) | 51.8 µM (inactive) | 49.1 µM (inactive) | > 100 µM (inactive) | > 100 µM (inactive) | > 100 µM (inactive) | > 100 µM (inactive) | > 100 µM (inactive) | > 100 µM (inactive)
3 | COC(=O)/C=C(\C)CC(O)/C=C(\C)CCC=C(C)C (centres undefined) | 34.7 µM (inactive) | 34.3 µM (inactive) | 64.7 µM (inactive) | 41.2 µM (inactive) | 40.5 µM (inactive) | 71.6 µM (inactive) | 32.1 µM (inactive) | 31.4 µM (inactive) | > 100 µM (inactive) | 39.6 µM (inactive) | 26.9 µM (inactive) | 44 µM (inactive) |  | 38.1 µM (inactive) | > 100 µM (inactive) | 69 µM (inactive) | > 100 µM (inactive) | > 100 µM (inactive) | > 100 µM (inactive)
4 | CCCCn1c(O)nc2c(N)ncnc21 | > 100 µM (inactive) | > 100 µM (inactive) | > 100 µM (inactive) | > 100 µM (inactive) | > 100 µM (inactive) | > 100 µM (inactive) | > 100 µM (inactive) | > 100 µM (inactive) | > 100 µM (inactive) | > 100 µM (inactive) | > 100 µM (inactive) | > 100 µM (inactive) |  | > 100 µM (inactive) | > 100 µM (inactive) | > 100 µM (inactive) | > 100 µM (inactive) | > 100 µM (inactive) | > 100 µM (inactive)
5 | Cc1ccc2c(c1)CC1(C2=O)[C@H](c2ccccc2)C2C(=O)c3ccc(C)cc3C2[C@H]1c1ccccc1 (some centres undefined) | > 100 µM (inactive) | > 100 µM (inactive) | > 100 µM (inactive) | > 100 µM (inactive) | 24.9 µM (inactive) | > 100 µM (inactive) | 30.7 µM (inactive) | 69.8 µM (inactive) | > 100 µM (inactive) | > 100 µM (inactive) | > 100 µM (inactive) | > 100 µM (inactive) |  | > 100 µM (inactive) | > 100 µM (inactive) | > 100 µM (inactive) | > 100 µM (inactive) | > 100 µM (inactive) | > 100 µM (inactive)
6 | COC(=O)/C=C(\S/C=C(/c1ccccc1)N1CCn2c(C(=O)c3ccccc3)c(C(=O)OC)c(C(=O)OC)c21)C(=O)OC | > 10 µM (inactive) | > 10 µM (inactive) | 3.34 µM (inactive) | 1.99 µM (inactive) | 2.34 µM (inactive) | 1.23 µM (inactive) | 3.53 µM (inactive) | 1.42 µM (inactive) | 2.69 µM (inactive) | 2.2 µM (inactive) | 3.3 µM (inactive) | 2.81 µM (inactive) | 2.43 µM (inactive) | > 10 µM (inactive) | 2.29 µM (inactive) |  | > 10 µM (inactive) | 5.05 µM (inactive) | > 10 µM (inactive)
7 | Oc1ccc2ccccc2c1CCc1c(O)ccc2ccccc12 | 18.5 µM (inactive) | 11.7 µM (inactive) | 16.4 µM (inactive) | 15.7 µM (inactive) | 12.6 µM (inactive) | 11 µM (inactive) | 7.55 µM (inactive) | 12.7 µM (inactive) | 14.1 µM (inactive) | 13.4 µM (inactive) | 11.8 µM (inactive) |  | 7.01 µM (inactive) | 11.7 µM (inactive) | 16.2 µM (inactive) | 10.6 µM (inactive) | 15.8 µM (inactive) | 11.2 µM (inactive) | 16.9 µM (inactive)
8 | CC1(C)[C@@H]2CC[C@@]1(C)[C@@H]1O[C@@H](O[C@@H](CN)c3cc(Cl)c(OCc4ccccc4)c(OCc4ccccc4)c3)C[C@H]21 | 0.199 µM (active) | 0.163 µM (active) | 0.169 µM (active) | 0.11 µM (active) | 0.15 µM (active) | 0.171 µM (active) | 0.156 µM (active) | 0.134 µM (active) | 0.155 µM (active) | 0.183 µM (active) |  | 0.162 µM (active) | 0.0463 µM (active) | 0.183 µM (active) | 0.196 µM (active) | 0.19 µM (active) | 0.175 µM (active) | 0.183 µM (active) | 0.183 µM (active)
9 | CCCCCCCCCCCCOc1ccc(/C=C/C2=[N+](CCCl)CCO2)cc1 | > 100 µM (inactive) | 65.2 µM (inactive) | 50.2 µM (inactive) | > 100 µM (inactive) | 15.8 µM (inactive) | 25.1 µM (inactive) | 21.3 µM (inactive) | 54.2 µM (inactive) | 25.1 µM (inactive) | > 100 µM (inactive) |  | 41.7 µM (inactive) | 20.1 µM (inactive) | 45.8 µM (inactive) | > 100 µM (inactive) | > 100 µM (inactive) | > 100 µM (inactive) | 77.4 µM (inactive) | > 100 µM (inactive)
10 | COc1cccc(OC)c1C1ON=C(c2ccccc2)N1C12CC3CC(CC(C3)C1)C2 (centres undefined) | > 100 µM (inactive) | 64.3 µM (inactive) | 35.3 µM (inactive) | > 100 µM (inactive) | 51.2 µM (inactive) | 10.9 µM (inactive) | > 100 µM (inactive) | > 100 µM (inactive) | > 100 µM (inactive) | 38.6 µM (inactive) | > 100 µM (inactive) |  | 4.41 µM (inactive) | > 100 µM (inactive) | > 100 µM (inactive) | > 100 µM (inactive) | 38.1 µM (inactive) | > 100 µM (inactive) | 13.1 µM (inactive)
11 | CCCC1C(C#N)(C#N)C(C#N)=C(N)C1(C)C(C)=O (centres undefined) | > 100 µM (inactive) | > 100 µM (inactive) | > 100 µM (inactive) | 65 µM (inactive) | 73.1 µM (inactive) | 36.3 µM (inactive) | 37.3 µM (inactive) | > 100 µM (inactive) | > 100 µM (inactive) | 77.1 µM (inactive) | > 100 µM (inactive) |  | > 100 µM (inactive) | > 100 µM (inactive) | > 100 µM (inactive) |  | > 100 µM (inactive) | > 100 µM (inactive) | > 100 µM (inactive)
